# Where two headings read alike, the source gives them in different places.
# Assays:
# [1] = molecular target: SHP-2 enzyme (Met1-Leu525) (Homo sapiens (Human), UniProt Q06124); experiment: SHP2 inhibition enzymatic assay; type: biochemical; details: 0.5 nM SHP-2 activated by 500 nM IRS1 peptide, 75 μM DiFMUP substrate; read-out: SHP2wt-IC50
# In short: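 SHP-2 (Met1-Leu525), 0.5 nM, activated with 500 nM IRS1 bis-phosphopeptide, preincubated 30 min with compounds in HEPES pH 7.2 buffer with 5 mM DTT. 75 μM DiFMUP added for 30 min at room temperature, stopped with bpV; fluorescence read. IC50 from four-parameter logistic fit of % inhibition.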
# [2] = test system: ERK phosphorylation in KYSE-520 cells; experiment: Phospho-ERK cellular assay; type: cell-based; details: KYSE-520 cells, 2 h at 37° C., phospho-ERK1/2 (Thr202/Tyr204) TR-FRET, read-out: PERK IC50
# In short: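 TR-FRET read-out of ERK1/2 Thr202/Tyr204 phosphorylation was taken after overnight antibody incubation at room temperature. Before that, KYSE-520 cells were treated 2 h at 37 °C with compound dilutions and lysed 30 min. Percent inhibition relative to vehicle and cell-free wells was fitted four-parametrically to give IC50.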
# Sequence of SHP-2 enzyme (Met1-Leu525) (Q06124 1-525): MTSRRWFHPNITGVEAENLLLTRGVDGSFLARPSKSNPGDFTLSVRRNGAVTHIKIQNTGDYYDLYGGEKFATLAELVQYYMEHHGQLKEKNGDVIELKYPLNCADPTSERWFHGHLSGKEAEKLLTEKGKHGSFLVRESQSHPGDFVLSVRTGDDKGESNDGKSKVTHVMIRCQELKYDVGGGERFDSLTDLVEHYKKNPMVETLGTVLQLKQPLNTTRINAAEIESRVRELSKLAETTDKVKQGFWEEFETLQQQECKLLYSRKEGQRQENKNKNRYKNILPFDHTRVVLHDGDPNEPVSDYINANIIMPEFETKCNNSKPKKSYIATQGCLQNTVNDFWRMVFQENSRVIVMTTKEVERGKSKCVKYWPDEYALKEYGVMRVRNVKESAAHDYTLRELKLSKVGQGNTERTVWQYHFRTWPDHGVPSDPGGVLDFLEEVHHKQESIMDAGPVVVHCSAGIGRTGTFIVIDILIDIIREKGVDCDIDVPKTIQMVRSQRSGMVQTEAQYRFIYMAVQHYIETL
IC50 [1],"IC50 ([2]; Homo sapiens, KYSE-520, 2 h)",IC50 [2],SMILES
< 0.5 µM,1 to 5 µM,–,"Cc1cc([C@@]2(CN)[C@@H]3CCN(c4cnc5c(-c6ccc7c(c6)OC(F)(F)O7)n[nH]c5n4)C[C@@H]32)no1 [Example 37, ((1S,6R,7S)-3-(3-(2,2-difluorobenzo[d][1,3]dioxol-5-yl)-1H-pyrazolo[3,4-b]pyrazin-6-yl)-7-(5-methylisoxazol-3-yl)-3-azabicyclo[4.1.0]heptan-7-yl)methanamine]"
< 0.5 µM,> 5 µM,–,"NC[C@]1(c2ccccc2F)[C@@H]2CCN(c3cnc4c(-c5ccc(C(=O)O)c6ccccc56)n[nH]c4n3)C[C@@H]21 [Example 257, 4-(6-((1S,6R,7R)-7-(aminomethyl)-7-(2-fluorophenyl)-3-azabicyclo[4.1.0]heptan-3-yl)-1H-pyrazolo[3,4-b]pyrazin-3-yl)-1-naphthoic acid]"
< 0.5 µM,< 1 µM,–,"Cc1cc(C2(CN)C3CCN(c4cnc5c(Sc6ccnc(N)c6Cl)n[nH]c5n4)CC32)no1 (stereo not shown) [Example 53, 4-((6-(7-(aminomethyl)-7-(5-methylisoxazol-3-yl)-3-azabicyclo[4.1.0]heptan-3-yl)-1H-pyrazolo[3,4-b]pyrazin-3-yl)thio)-3-chloropyridin-2-amine]"
< 0.5 µM,< 1 µM,–,"CS(=O)(=O)NC(=O)c1ccc(-c2n[nH]c3nc(N4CC[C@@H]5[C@H](C4)[C@@]5(CN)c4ccccc4F)cnc23)c2cccnc12 [Example 282, 5-(6-((1S,6R,7R)-7-(aminomethyl)-7-(2-fluorophenyl)-3-azabicyclo[4.1.0]heptan-3-yl)-1H-pyrazolo[3,4-b]pyrazin-3-yl)-N-(methylsulfonyl)quinoline-8-carboxamide]"
< 0.5 µM,< 1 µM,–,"CCn1cc2c(Cl)c(-c3n[nH]c4nc(N5CC[C@@H]6[C@H](C5)[C@@]6(CN)c5ccccc5F)cnc34)ccc2n1 [Example 208, ((1S,6R,7R)-3-(3-(4-chloro-2-ethyl-2H-indazol-5-yl)-1H-pyrazolo[3,4-b]pyrazin-6-yl)-7-(2-fluorophenyl)-3-azabicyclo[4.1.0]heptan-7-yl)methanamine]"
< 0.5 µM,< 1 µM,–,"Cc1csc([C@@]2(CN)[C@@H]3CN(c4nc5[nH]nc(-c6ccc7nc(C)sc7c6Cl)c5c(=O)n4C)C[C@@H]32)n1 [Example 469, 6-((1R,5S,6r)-6-(aminomethyl)-6-(4-methylthiazol-2-yl)-3-azabicyclo[3.1.0]hexan-3-yl)-3-(7-chloro-2-methylbenzo[d]thiazol-6-yl)-5-methyl-1,5-dihydro-4H-pyrazolo[3,4-d]pyrimidin-4-one]"
< 0.5 µM,< 1 µM,–,"Cn1c(=O)ccc2c(-c3n[nH]c4nc(N5CC[C@@H]6[C@H](C5)[C@@]6(CN)c5ccccc5F)cnc34)cccc21 [Example 272, 5-(6-((1S,6R,7R)-7-(aminomethyl)-7-(2-fluorophenyl)-3-azabicyclo[4.1.0]heptan-3-yl)-1H-pyrazolo[3,4-b]pyrazin-3-yl)-1-methylquinolin-2(1H)-one]"
< 0.5 µM,< 1 µM,–,"NC[C@]1(c2ccccc2F)[C@@H]2CCN(c3cnc(Sc4ccnc(-n5cccn5)c4Cl)cn3)C[C@@H]21 [Example 388, ((1S,6R,7R)-3-(5-((3-chloro-2-(1H-pyrazol-1-yl)pyridin-4-yl)thio)pyrazin-2-yl)-7-(2-fluorophenyl)-3-azabicyclo[4.1.0]heptan-7-yl)methanamine]"

# Continued, compound first:
SMILES,IC50 [1],"IC50 ([2]; Homo sapiens, KYSE-520, 2 h)",IC50 [2]
"NC[C@]1(c2ccccc2F)[C@@H]2CCN(c3cnc4c(-c5cc(N)ncc5Cl)n[nH]c4n3)C[C@@H]21 [Example 196, 4-(6-((1S,6R,7R)-7-(aminomethyl)-7-(2-fluorophenyl)-3-azabicyclo[4.1.0]heptan-3-yl)-1H-pyrazolo[3,4-b]pyrazin-3-yl)-5-chloropyridin-2-amine]",< 0.5 µM,< 1 µM,–
"Cn1cc2ccc(-c3n[nH]c4nc(N5CC[C@@H]6[C@H](C5)[C@@]6(CN)c5ccccc5F)cnc34)c(Cl)c2n1 [Example 363, ((1S,6R,7R)-3-(3-(7-chloro-2-methyl-2H-indazol-6-yl)-1H-pyrazolo[3,4-b]pyrazin-6-yl)-7-(2-fluorophenyl)-3-azabicyclo[4.1.0]heptan-7-yl)methanamine]",< 0.5 µM,< 1 µM,–
Cc1csc(C2(CN)[C@@H]3CN(c4cnc5c(-c6ccc(C(N)=O)c7ncccc67)n[nH]c5n4)C[C@@H]32)n1 (stereo partly shown) [Example 504],< 0.5 µM,–,< 1 µM
"Cn1ccc(Oc2ccc(-c3n[nH]c4nc(N5CC[C@@H]6[C@H](C5)[C@@]6(CN)c5ccccc5F)cnc34)c(Cl)c2Cl)n1 [Example 215, ((1S,6R,7R)-3-(3-(2,3-dichloro-4-((1-methyl-1H-pyrazol-3-yl)oxy)phenyl)-1H-pyrazolo[3,4-b]pyrazin-6-yl)-7-(2-fluorophenyl)-3-azabicyclo[4.1.0]heptan-7-yl)methanamine]",< 0.5 µM,< 1 µM,–
"NC[C@]1(c2ccccc2F)[C@@H]2CCN(c3cnc4c(-c5ccc(F)c6ncccc56)n[nH]c4n3)C[C@@H]21 [Example 376, ((1S,6R,7R)-7-(2-fluorophenyl)-3-(3-(8-fluoroquinolin-5-yl)-1H-pyrazolo[3,4-b]pyrazin-6-yl)-3-azabicyclo[4.1.0]heptan-7-yl)methanamine]",< 0.5 µM,< 1 µM,–
"Cn1cnc2ccc(-c3n[nH]c4nc(N5CC[C@@H]6[C@H](C5)[C@@]6(CN)c5cc(F)ccc5F)cnc34)c(Cl)c21 [Example 396, ((1S,6R,7R)-3-(3-(7-chloro-1-methyl-1H-benzo[d]imidazol-6-yl)-1H-pyrazolo[3,4-b]pyrazin-6-yl)-7-(2,5-difluorophenyl)-3-azabicyclo[4.1.0]heptan-7-yl)methanamine]",< 0.5 µM,< 1 µM,–
"Cc1c(-c2n[nH]c3nc(N4CC[C@@H]5[C@H](C4)[C@@]5(CN)c4ccccc4F)cnc23)ccc2nn(C)cc12 [Example 145, ((1S,6R,7R)-3-(3-(2,4-dimethyl-2H-indazol-5-yl)-1H-pyrazolo[3,4-b]pyrazin-6-yl)-7-(2-fluorophenyl)-3-azabicyclo[4.1.0]heptan-7-yl)methanamine]",< 0.5 µM,< 1 µM,–
"NC[C@]1(c2cccc(F)c2F)[C@@H]2CCN(c3cnc(Sc4ccnc(N)c4Cl)c(N)n3)C[C@@H]21 [Example 429, 3-((2-amino-3-chloropyridin-4-yl)thio)-6-((1S,6R,7R)-7-(aminomethyl)-7-(2,3-difluorophenyl)-3-azabicyclo[4.1.0]heptan-3-yl)pyrazin-2-amine]",< 0.5 µM,< 1 µM,–
"Cc1c(-c2n[nH]c3nc(N4CC[C@@H]5[C@H](C4)[C@@]5(CN)c4ccccc4F)cnc23)ccc2c1n(C)c(=O)n2C [Example 261, 5-(6-((1S,6R,7R)-7-(aminomethyl)-7-(2-fluorophenyl)-3-azabicyclo[4.1.0]heptan-3-yl)-1H-pyrazolo[3,4-b]pyrazin-3-yl)-1,3,4-trimethyl-1,3-dihydro-2H-benzo[d]imidazol-2-one]",< 0.5 µM,< 1 µM,–
"CNc1nccc(-c2n[nH]c3nc(N4CCC5C(C4)C5(CN)c4ccccc4F)cnc23)c1Cl (stereo not shown) [Example 16, 4-(6-(7-(aminomethyl)-7-(2-fluorophenyl)-3-azabicyclo[4.1.0]heptan-3-yl)-1H-pyrazolo[3,4-b]pyrazin-3-yl)-3-chloro-N-methylpyridin-2-amine]",< 0.5 µM,< 1 µM,–
"NC[C@]1(c2ccccc2F)[C@@H]2CCN(c3cnc(Sc4ccc(C(N)=O)cc4Cl)cn3)C[C@@H]21 [Example 421, 4-((5-((1S,6R,7R)-7-(aminomethyl)-7-(2-fluorophenyl)-3-azabicyclo[4.1.0]heptan-3-yl)pyrazin-2-yl)thio)-3-chlorobenzamide]",< 0.5 µM,< 1 µM,–
"NC[C@]1(c2ccccc2F)[C@@H]2CCN(c3cnc(Sc4ccnc(N)c4Cl)cn3)C[C@@H]21 [Example 401, 4-((5-((1S,6R,7R)-7-(aminomethyl)-7-(2-fluorophenyl)-3-azabicyclo[4.1.0]heptan-3-yl)pyrazin-2-yl)thio)-3-chloropyridin-2-amine]",< 0.5 µM,< 1 µM,–
"COc1cnc2ccc(-c3n[nH]c4nc(N5CC[C@@H]6[C@H](C5)[C@@]6(CN)c5ccccc5F)cnc34)c(Cl)c2n1 [Example 119, ((1S,6R,7R)-3-(3-(5-chloro-3-methoxyquinoxalin-6-yl)-1H-pyrazolo[3,4-b]pyrazin-6-yl)-7-(2-fluorophenyl)-3-azabicyclo[4.1.0]heptan-7-yl)methanamine]",< 0.5 µM,< 1 µM,–
"NC[C@]1(c2ccccc2F)[C@@H]2CCN(c3cnc4c(-c5ccc6[nH]ccc6c5Cl)n[nH]c4n3)C[C@@H]21 [Example 405, ((1S,6R,7R)-3-(3-(4-chloro-1H-indol-5-yl)-1H-pyrazolo[3,4-b]pyrazin-6-yl)-7-(2-fluorophenyl)-3-azabicyclo[4.1.0]heptan-7-yl)methanamine]",< 0.5 µM,< 1 µM,–
"NCC1(c2ccc(F)cc2)C2CCN(c3cnc4c(-c5cccc6cccnc56)n[nH]c4n3)CC21 (stereo not shown) [Example 12, (7-(4-fluorophenyl)-3-(3-(quinolin-8-yl)-1H-pyrazolo[3,4-b]pyrazin-6-yl)-3-azabicyclo[4.1.0]heptan-7-yl)methanamine]",0.5 to 3 µM,> 5 µM,–
